According to patent EP0193257A1, “Control of micro-organisms in water-containing compositions” (NIPA LABORATORIES, LTD., priority 1985, dated 1986):

What was measured:
Format in all cases: cell-based
Serratia marcescens [1] = test: Bactericidal effect in 27% sodium lauryl ether sulphate (challenge test)
Procedure: (§1) Sodium lauryl ether sulphate (SLES) is a commonly used anionic detergent, a major active component of shampoos, foam baths and general purpose cleaners. The bactericidal activity of some compounds covered by the general formula given above was evaluated at final levels of 0.10% (w/w) and 0. 15% (w/w) in a 27% active solution of SLES (confirmed as containing no other preservatives). The activity of these compounds was evaluated in comparison with 0.30% methyl-4-hydroxybenzoate and an unpreserved control sample.
(§2) The test organisms were three species of resistant Gram negative bacteria which had previously been isolated from contaminated detergent products. 20g portions of test solutions were inoculated with 0.1 ml pure culture of the test bacteria and the time taken to achieve a total lethal effect against each species was determined by sub-culture at regular intervals into sterile dilution media (containing preservative inact ivators) and then into sterile Nutrient Broth, which was incubated for 4 days at 32°C to determine the presence or absence of surviving bacteria.

Klebsiella oxytoca [2] = test: as above
Procedure: as §1, §2

Pseudomonas aeruginosa [3] = test: as above
Procedure: as §1, §2

[4] = test system: mixed culture of 7 strains of Gram negative bacteria; test: Survivor plate count in shampoo formulation after challenge; conditions: shampoo with 0.05% citric acid alone (Control 1)
Procedure: A shampoo formulation was prepared to the following formula: […]
Various additions were made to portions of this shampoo in sterile bottles under aseptic conditions, as follows: • 1. 0.20% of 30% DCHB in propylene glycol (0.06% active DCHB) • 2. 0.20% of 30% DCHB in propylene glycol + 0.05% citric acid • 3. 0.05% citric acid (control 1) • 4. No addition (control 2)
Each of these systems was inoculated with a mixed culture of 7 strains of Gram negative bacteria, at an initial inocullum level of 9.0x10^7 colony forming units per g. At 30 mins, 1 hour, 2 hours, 6 hours, 24 hours and 7 days after inoculation the total number of survivors in each sample portion were determined by serial dilution and plate counting; with the following results: […]

Serratia marcescens [5] = test: Challenge test in Polysorbate 80 solutions
Procedure: (§3) Many antimicrobial preservatives are inactivated by polyalkoxylated nonionic emulsifiers which are widely used in emulsification of cosmetic, pharmaceutical and industrial emulsions. […] Normal use levels of Polysorbate 80 are 1-5%.
(§4) 3,5-Dibromo-4-hydroxybenzaldehyde was evaluated at 0.05%, 0.10% and 0.15% in 5% and 10% Polysorbate 80 solutions by a challenge test of the type described in Example 2.

Klebsiella oxytoca [6] = test: Challenge test in Polysorbate 80 solutions
Procedure: as §3, §4

Pseudomonas putida [7] = test: Challenge test in Polysorbate 80 solutions
Procedure: as §3, §4

Pseudomonas aeruginosa [8] = test: Challenge test in Polysorbate 80 solutions
Procedure: as §3, §4

Escherichia coli [9] = test: Challenge test in Polysorbate 80 solutions
Procedure: as §3, §4

Serratia marcescens [10] = test: Microbial challenge test in cosmetic cream
Procedure: (§5) Emulsions are susceptible to contamination and spoilage by-a wide range of micro-organisms. 3.5-Dibromo-4-hydroxybenzaldehyde (DBHB), as a non-limiting illustration of the invention, was evaluated in a typical cosmetic cream for microbiocidal efficacy. The cosmetic cream had the following formulation: […]
(§6) This cream was prepared by heating the oil and water phases to 70°C, mixing and stirring until cool. The DBHB was incorporated into the cream at final levels of 0.05%, 0.10% and 0.15% by dissolving into the emulsion components at the heating stage. A microbial challenge test was performed to determine the micro-biocidal activity of the test product. The following test organisms were inoculated in pure culture into portions of sterile cream samples and the time taken to achieve a total lethal effect was determined by regular sub-culture into recovery media (with preservative inactivators) which were incubated and observed for growth of survivors.

Pencicillium expansum = test: Microbial challenge test in cosmetic cream
Procedure: as §5, §6

Pseudomonas putida [11] = test: Microbial challenge test in cosmetic cream
Procedure: as §5, §6

Candida albicans = test: Microbial challenge test in cosmetic cream
Procedure: as §5, §6

Staphylococcus aureus = test: Microbial challenge test in cosmetic cream
Procedure: as §5, §6

Pseudomonas aeruginosa [12] = test: Microbial challenge test in cosmetic cream
Procedure: as §5, §6

Escherichia coli [13] = test: Microbial challenge test in cosmetic cream
Procedure: as §5, §6

[14] = 0.05%, Polysorbate 80 level 10%
[15] = 0.10%, Polysorbate 80 level 10%
[16] = 0.15%, Polysorbate 80 level 10%

COC(=O)c1ccc(O)cc1 [Methyl-4-hydroxybenzoate, reference compound]
Time to achieve total lethal effect against: S marcescens (Serratia marcescens [1]; 0.3% in 27% SLES): >28 days
Time to achieve total lethal effect against: K oxytoca (Klebsiella oxytoca [2]; 0.3% in 27% SLES): 504 h
Time to achieve total lethal effect against: P aeruginosa (Pseudomonas aeruginosa [3]; 0.3% in 27% SLES): 336 h

Cc1cc(C=O)cc(C)c1O [3,5-Dimethyl-4-hydroxybenzaldehyde, 3,5,-Dimethyl-4-hydroxybenzaldehyde]
Time to achieve total lethal effect against: S marcescens (Serratia marcescens [1]; 0.10% in 27% SLES): 1 days
Time to achieve total lethal effect against: S marcescens (Serratia marcescens [1]; 0.15% in 27% SLES): 0.12 days
Time to achieve total lethal effect against: K oxytoca (Klebsiella oxytoca [2]; 0.10% in 27% SLES): 3 h
Time to achieve total lethal effect against: K oxytoca (Klebsiella oxytoca [2]; 0.15% in 27% SLES): <1 h
Time to achieve total lethal effect against: P aeruginosa (Pseudomonas aeruginosa [3]; 0.10% in 27% SLES): 1 hour hours
Time to achieve total lethal effect against: P aeruginosa (Pseudomonas aeruginosa [3]; 0.15% in 27% SLES): <1 h

O=C(O)CC(O)(CC(=O)O)C(=O)O [citric acid, reference compound]
Mixed culture - colony forming units/g after: 30 mins [4]: 9.0x10^7 colony forming units/g
Mixed culture - colony forming units/g after: 1 hour [4]: 3.5x10^7 colony forming units/g
Mixed culture - colony forming units/g after: 2 hours [4]: 6.5x10^7 colony forming units/g
Mixed culture - colony forming units/g after: 6 hours [4]: >1x10^8 colony forming units/g
Mixed culture - colony forming units/g after: 24 hours [4]: >1x10^8 colony forming units/g
Mixed culture - colony forming units/g after: 7 days [4]: >1x10^8 colony forming units/g

O=Cc1ccc(O)c(Cl)c1 [3-Chloro-4-hydroxybenzaldehyde]
Time to achieve total lethal effect against: S marcescens (Serratia marcescens [1]; 0.10% in 27% SLES): 1 days
Time to achieve total lethal effect against: S marcescens (Serratia marcescens [1]; 0.15% in 27% SLES): 0.25 days
Time to achieve total lethal effect against: K oxytoca (Klebsiella oxytoca [2]; 0.10% in 27% SLES): 6 h
Time to achieve total lethal effect against: K oxytoca (Klebsiella oxytoca [2]; 0.15% in 27% SLES): 1 h
Time to achieve total lethal effect against: P aeruginosa (Pseudomonas aeruginosa [3]; 0.10% in 27% SLES): 3 h
Time to achieve total lethal effect against: P aeruginosa (Pseudomonas aeruginosa [3]; 0.15% in 27% SLES): 1 h

O=Cc1cc(Br)c(O)c(Br)c1 [DBHB, 3,5-Dibromo-4-hydroxybenzaldehyde]
Time taken to achieve total lethal effect against: S marcescens (Serratia marcescens [5]; 0.05%, Polysorbate 80 level 5%): 24 h
Time taken to achieve total lethal effect against: S marcescens (Serratia marcescens [5]; [14]): 24 h
Time taken to achieve total lethal effect against: S marcescens (Serratia marcescens [5]; 0.10%, Polysorbate 80 level 5%): 1 h
Time taken to achieve total lethal effect against: S marcescens (Serratia marcescens [5]; [15]): 3 h
Time taken to achieve total lethal effect against: S marcescens (Serratia marcescens [5]; 0.15%, Polysorbate 80 level 5%): 1 h
Time taken to achieve total lethal effect against: S marcescens (Serratia marcescens [5]; [16]): 1 h
Time taken to achieve total lethal effect against: K oxytoca (Klebsiella oxytoca [6]; 0.05%, Polysorbate 80 level 5%): 6 h
Time taken to achieve total lethal effect against: K oxytoca (Klebsiella oxytoca [6]; [14]): 3 h
Time taken to achieve total lethal effect against: K oxytoca (Klebsiella oxytoca [6]; 0.10%, Polysorbate 80 level 5%): 1 h
Time taken to achieve total lethal effect against: K oxytoca (Klebsiella oxytoca [6]; [15]): 1 h
Time taken to achieve total lethal effect against: K oxytoca (Klebsiella oxytoca [6]; 0.15%, Polysorbate 80 level 5%): <1 h
Time taken to achieve total lethal effect against: K oxytoca (Klebsiella oxytoca [6]; [16]): <1 h
Time taken to achieve total lethal effect against: P putida (Pseudomonas putida [7]; 0.05%, Polysorbate 80 level 5%): 3 h
Time taken to achieve total lethal effect against: P putida (Pseudomonas putida [7]; [14]): 1 h
Time taken to achieve total lethal effect against: P putida (Pseudomonas putida [7]; 0.10%, Polysorbate 80 level 5%): <1 h
Time taken to achieve total lethal effect against: P putida (Pseudomonas putida [7]; [15]): 1 h
Time taken to achieve total lethal effect against: P putida (Pseudomonas putida [7]; 0.15%, Polysorbate 80 level 5%): <1 h
Time taken to achieve total lethal effect against: P putida (Pseudomonas putida [7]; [16]): <1 h
Time taken to achieve total lethal effect against: P aeruginosa (Pseudomonas aeruginosa [8]; 0.05%, Polysorbate 80 level 5%): 3 h
Time taken to achieve total lethal effect against: P aeruginosa (Pseudomonas aeruginosa [8]; [14]): 24 h
Time taken to achieve total lethal effect against: P aeruginosa (Pseudomonas aeruginosa [8]; 0.10%, Polysorbate 80 level 5%): <1 h
Time taken to achieve total lethal effect against: P aeruginosa (Pseudomonas aeruginosa [8]; [15]): 3 h
Time taken to achieve total lethal effect against: P aeruginosa (Pseudomonas aeruginosa [8]; 0.15%, Polysorbate 80 level 5%): <1 h
Time taken to achieve total lethal effect against: P aeruginosa (Pseudomonas aeruginosa [8]; [16]): <1 h
Time taken to achieve total lethal effect against: E coli (Escherichia coli [9]; 0.05%, Polysorbate 80 level 5%): 6 h
Time taken to achieve total lethal effect against: E coli (Escherichia coli [9]; [14]): 3 h
Time taken to achieve total lethal effect against: E coli (Escherichia coli [9]; 0.10%, Polysorbate 80 level 5%): <1 h
Time taken to achieve total lethal effect against: E coli (Escherichia coli [9]; [15]): 1 h
Time taken to achieve total lethal effect against: E coli (Escherichia coli [9]; 0.15%, Polysorbate 80 level 5%): <1 h
Time taken to achieve total lethal effect against: E coli (Escherichia coli [9]; [16]): <1 h
Time to achieve total lethal effect against: S marcescens (Serratia marcescens [1]; 0.10% in 27% SLES): 0.12 days
Time to achieve total lethal effect against: S marcescens (Serratia marcescens [1]; 0.15% in 27% SLES): <1 hour hours
Time to achieve total lethal effect against: K oxytoca (Klebsiella oxytoca [2]; 0.10% in 27% SLES): 3 h
Time to achieve total lethal effect against: K oxytoca (Klebsiella oxytoca [2]; 0.15% in 27% SLES): <1 h
Time to achieve total lethal effect against: P aeruginosa (Pseudomonas aeruginosa [3]; 0.10% in 27% SLES): 1 hour hours
Time to achieve total lethal effect against: P aeruginosa (Pseudomonas aeruginosa [3]; 0.15% in 27% SLES): <1 h
Time taken to achieve total lethal effect against: S marcescens (Serratia marcescens [10]; 0.05% in cosmetic cream): 3 h
Time taken to achieve total lethal effect against: S marcescens (Serratia marcescens [10]; 0.10% in cosmetic cream): 3 h
Time taken to achieve total lethal effect against: S marcescens (Serratia marcescens [10]; 0.15% in cosmetic cream): 1 h
Time taken to achieve total lethal effect against: Pen expansum (Pencicillium expansum; 0.05% in cosmetic cream): 4 days
Time taken to achieve total lethal effect against: Pen expansum (Pencicillium expansum; 0.10% in cosmetic cream): 2 days
Time taken to achieve total lethal effect against: Pen expansum (Pencicillium expansum; 0.15% in cosmetic cream): 1 days
Time taken to achieve total lethal effect against: P putida (Pseudomonas putida [11]; 0.05% in cosmetic cream): 3 h
Time taken to achieve total lethal effect against: P putida (Pseudomonas putida [11]; 0.10% in cosmetic cream): <1 h
Time taken to achieve total lethal effect against: P putida (Pseudomonas putida [11]; 0.15% in cosmetic cream): <1 h
Time taken to achieve total lethal effect against: C albicans (Candida albicans; 0.05% in cosmetic cream): 3 h
Time taken to achieve total lethal effect against: C albicans (Candida albicans; 0.10% in cosmetic cream): <1 h
Time taken to achieve total lethal effect against: C albicans (Candida albicans; 0.15% in cosmetic cream): <1 h
Time taken to achieve total lethal effect against: S aureus (Staphylococcus aureus; 0.05% in cosmetic cream): 1 h
Time taken to achieve total lethal effect against: S aureus (Staphylococcus aureus; 0.10% in cosmetic cream): <1 h
Time taken to achieve total lethal effect against: S aureus (Staphylococcus aureus; 0.15% in cosmetic cream): <1 h
Time taken to achieve total lethal effect against: P aeruginosa (Pseudomonas aeruginosa [12]; 0.05% in cosmetic cream): 3 h
Time taken to achieve total lethal effect against: P aeruginosa (Pseudomonas aeruginosa [12]; 0.10% in cosmetic cream): 3 h
Time taken to achieve total lethal effect against: P aeruginosa (Pseudomonas aeruginosa [12]; 0.15% in cosmetic cream): <1 h
Time taken to achieve total lethal effect against: E coli (Escherichia coli [13]; 0.05% in cosmetic cream): 3 h
Time taken to achieve total lethal effect against: E coli (Escherichia coli [13]; 0.10% in cosmetic cream): 3 h
Time taken to achieve total lethal effect against: E coli (Escherichia coli [13]; 0.15% in cosmetic cream): <1 h
